Patent US20240148679A1, “METHODS AND COMPOSITIONS RELATED TO TREATMENT AND PREVENTION OF CANCER BY INHIBITION OF DGAT1 AND DGAT2” (Ohio State Innovation Foundation, priority 2019, published 2024)

Key:
Type in all cases: cell-based, human
HepG2 cells = assay: Lipid droplet and TG levels in liver cancer cell line HepG2
Description: (A) RT-qPCR analysis of DGAT1 vs. DGAT2 mRNA expression in GBM cells (U251 and GBM30) and in liver cancer cell line (HepG2). The results are shown as mean±SD (n=3). Statistical significance was determined by a paired Student's t-test. *P<0.01; n.s., not significant. (B) Representative fluorescence imaging of LDs stained with BODIPY 493/503 (green) (upper panels) and TLC analysis of TG levels (lower panels) in GBM and liver cancer cells after treatments with the DGAT1 inhibitor A-922500 (20 μg/ml) or DGAT2 inhibitor PF-06424439 ([…]) alone or in combination for 24 hr. Nuclei were stained with Hoechst 33342 (blue). Scale bar, 10 m. LDs were quantified by the ImageJ software in more than 30 cells in each treatment group (mean±SEM). TG levels were quantified by the ImageJ software and normalized to the untreated control group (mean±SD, n=3). Statistical significance was determined by one-way ANOVA. * P<0.001; #P<0.05. (C) Percentage of dead GBM or liver cancer cells after treatment with DGAT1 or DGAT2 inhibitors alone or in combination for 3 days as in panel B. Live and dead cells were counted after trypan blue staining (mean SD, n=3). Statistical significance was determined by one-way ANOVA. * P<0.0001. (D) Western blot analysis of DGAT1 expression in membrane extracts from GBM and liver cancer cells after infection with shRNA-expressing lentivirus against DGAT1 for 48 hr. PDIA1, an ER protein marker, was used as an internal control. (E) RT-qPCR analysis of DGAT2 mRNA expression in GBM and liver cancer cells after infection with shRNA-expressing lentivirus against DGAT2 for 48 hr. The expression level was normalized to control cells and shown as mean±SD (n=3). Statistical significance was determined by one-way ANOVA. * P<0.01. (F) Representative fluorescence images of LDs stained with BODIPY 493/503 (upper panels) and TLC analysis of TG levels (lower panels) in GBM and liver cancer cells after lentivirus-mediated shRNA knockdown of DGAT1 or DGAT2 alone or in combination for 48 hr. Scale bar, 10 m. Quantification and significance analysis of LDs and TG levels in different groups were the same as in panel B. * P<0.001; #P<0.05. (G) Percentage of dead GBM or liver cancer cells after lentivirus-mediated shRNA knockdown of DGAT1 or DGAT2 alone or in combination for 4 days. Cell death percentage and significance were determined as in panel c (mean±SD, n=3). *P<0.0001; #P<0.001. […]
For live cells, lipid droplets were stained with BODIPY 493/503 ([…]) (Cat #D-3922; Life Technologies) for 30 min and visualized by confocal microscopy (Carl Zeiss LSM510 Meta, 63×/1.4 NA oil). More than 30 cells were analyzed and LD numbers were quantified with the Image J software (NIH) in a 3D stack, as previously described in Geng 2016. […]

BIP and CHOP = assay: Western blot of ER stress markers; conditions: 20 μg/ml, 24 hours, GBM cells
Description: (A) Western blotting analysis of ER stress protein markers BIP and CHOP expression in GBM cells treated with the DGAT1 inhibitor A-922500 (20 μg/ml) for 24 hr. (B) Percentage of cell death in U251 cells treated with the ER stress pathway PERK inhibitor GSK2656157 or IRE1a inhibitor 4μ8C, alone or in combination with the DGAT1 inhibitor A-922500 (20 μg/ml) for 3 days. […] (C) Western blotting analysis of expression of ER stress protein markers BIP and CHOP in GBM cells infected with shRNA-expressing lentivirus against DGAT1 for 48 hr.
Western Blotting Cells were lysed by RIPA buffer (Cat #NC9484499; Fisher Scientific) containing protease inhibitor cocktail (Cat #11836170001; Roche) and phosphatase inhibitor (Cat #04906845001; Roche). The proteins were separated by using 12% SDS-PAGE, and transferred onto a Hybond ECL nitrocellulose membrane (Cat #RPN3032D; GE Healthcare).
After blocking for 1.5 h in 5% nonfat milk diluted by Tris-buffered saline containing 0.1% Tween 20, the membranes were incubated with various primary antibodies, followed by secondary antibodies conjugated to horseradish peroxidase.

GBM cells = assay: GBM cell death, trypan blue counting; conditions: single inhibitor, 3 days
[1] = inhibition of both enzymes (A-922500 + PF-06424439)
[2] = single inhibitor, 20 μg/ml, 24 hr

## O=C(Nc1ccccc1)Nc1ccc(-c2ccc(C(=O)[C@@H]3CCC[C@H]3C(=O)O)cc2)cc1 [A-922500]
HepG2 cells; [1]
  LDs/TG levels: strongly reduce
HepG2 cells; [2]
  LDs/TG levels: only slightly decreased
BIP and CHOP
  protein levels of BIP and CHOP (ER stress): induces ER stress
BIP and CHOP; listed as A922500
  protein levels of BIP and CHOP (ER stress): increased
GBM cells
  GBM cell death: greatly induced marked GBM cell death

## CS(=O)(=O)O.O=C([C@@H]1CCCN(c2ccc3[nH]c(C4(n5cc(Cl)cn5)CC4)nc3n2)C1)N1CCCC1 [PF-06424439]
HepG2 cells; [1]
  LDs/TG levels: strongly reduce
HepG2 cells; [2]
  LDs/TG levels: only slightly decreased
